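96-well plates; 48 h exposure; 5 concentrations. Endpoints by linear interpolation between flanking doses. Not reached: highest tested concentration assigned. The concentration for 50% growth inhibition is given as GI50. TGI: total growth inhibition.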
Experiments:
Test in all cases: NCI tumour cell line growth inhibition, 48 h
786-0 renal = system: 786-0 renal
A498 renal = system: A498 renal
A549 NSCLC = system: A549 NSCLC
ACHN renal = system: ACHN renal
BT-549 breast = system: BT-549 breast
CCRF-CEM leukemia = system: CCRF-CEM leukemia
COLO 205 colon = system: COLO 205 colon
DU-145 prostate = system: DU-145 prostate
EKVX NSCLC = system: EKVX NSCLC
HCC-2998 colon = system: HCC-2998 colon
HCT-116 colon = system: HCT-116 colon
HCT-15 colon = system: HCT-15 colon
HL-60(TB) leukemia = system: HL-60(TB) leukemia
HOP-62 NSCLC = system: HOP-62 NSCLC
HOP-92 NSCLC = system: HOP-92 NSCLC
HS 578T breast = system: HS 578T breast
HT29 colon = system: HT29 colon
IGROV1 ovarian = system: IGROV1 ovarian
K-562 leukemia = system: K-562 leukemia
KM12 colon = system: KM12 colon
LOX IMVI melanoma = system: LOX IMVI melanoma
M14 melanoma = system: M14 melanoma
MALME-3M melanoma = system: MALME-3M melanoma
MCF7 breast = system: MCF7 breast
MDA-MB-231 breast = system: MDA-MB-231 breast
MDA-MB-435 = system: MDA-MB-435
MOLT-4 leukemia = system: MOLT-4 leukemia
NCI-H226 lung = system: NCI-H226 lung
NCI-H23 lung = system: NCI-H23 lung
NCI-H460 lung = system: NCI-H460 lung
NCI-H522 lung = system: NCI-H522 lung
NCI/ADR-RES ovarian = system: NCI/ADR-RES ovarian
OVCAR-3 ovarian = system: OVCAR-3 ovarian
OVCAR-4 ovarian = system: OVCAR-4 ovarian
OVCAR-5 ovarian = system: OVCAR-5 ovarian
OVCAR-8 ovarian = system: OVCAR-8 ovarian
PC-3 prostate = system: PC-3 prostate
RPMI-8226 leukemia = system: RPMI-8226 leukemia
RXF 393 renal = system: RXF 393 renal
SF-268 CNS = system: SF-268 CNS
SF-295 CNS = system: SF-295 CNS
SF-539 CNS = system: SF-539 CNS
SK-MEL-2 melanoma = system: SK-MEL-2 melanoma
SK-MEL-28 melanoma = system: SK-MEL-28 melanoma
SK-MEL-5 melanoma = system: SK-MEL-5 melanoma
SK-OV-3 ovarian = system: SK-OV-3 ovarian
SN12C renal = system: SN12C renal
SNB-19 CNS = system: SNB-19 CNS
SNB-75 CNS = system: SNB-75 CNS
SR leukemia = system: SR leukemia
SW-620 colon = system: SW-620 colon
T-47D breast = system: T-47D breast
TK-10 renal = system: TK-10 renal
U251 CNS = system: U251 CNS
UACC-257 melanoma = system: UACC-257 melanoma
UACC-62 melanoma = system: UACC-62 melanoma
UO-31 renal = system: UO-31 renal

Which GI50 (786-0 renal) does the source give for `Cc1cc(N2CCOCC2)nc(N(CCCNc2ccnc3cc(Cl)ccc23)Cc2ccco2)n1` here?
Its GI50 is 1.58 µM.

What about the TGI (786-0 renal) of the same compound?
Its TGI is 3.17 µM.

What about the GI50 (A498 renal) of the same compound?
Its GI50 is 2.2 µM.

What about the TGI (A498 renal) of the same compound?
Its TGI is 6.04 µM.

And the GI50 (A549 NSCLC)?
The GI50 was 3.77 µM.

And the TGI (A549 NSCLC)?
Its TGI is 13.6 µM.

And the GI50 (ACHN renal)?
Its GI50 is 4.09 µM.

And the TGI (ACHN renal)?
Its TGI is 15.8 µM.

What about the GI50 (BT-549 breast) of the same compound?
The GI50 was 2.3 µM.

What about the TGI (BT-549 breast) of the same compound?
Its TGI is 7.95 µM.

What about the GI50 (CCRF-CEM leukemia) of the same compound?
Its GI50 is 2.67 µM.

And the TGI (CCRF-CEM leukemia)?
The TGI was 18.3 µM.

What about the GI50 (COLO 205 colon) of the same compound?
Its GI50 is 1.71 µM.

And the TGI (COLO 205 colon)?
The TGI was 3.72 µM.

What about the GI50 (DU-145 prostate) of the same compound?
The GI50 was 3.23 µM.

What about the TGI (DU-145 prostate) of the same compound?
Its TGI is 14.2 µM.

What about the GI50 (EKVX NSCLC) of the same compound?
Its GI50 is 3.73 µM.

What about the TGI (EKVX NSCLC) of the same compound?
Its TGI is 16.7 µM.

What about the GI50 (HCC-2998 colon) of the same compound?
Its GI50 is 2.97 µM.

And the TGI (HCC-2998 colon)?
The TGI was 8.18 µM.

And the GI50 (HCT-116 colon)?
The GI50 was 2.2 µM.

And the TGI (HCT-116 colon)?
Its TGI is 10.5 µM.

And the GI50 (HCT-15 colon)?
Its GI50 is 2.37 µM.

What about the TGI (HCT-15 colon) of the same compound?
The TGI was 11.6 µM.

And the GI50 (HL-60(TB) leukemia)?
The GI50 was 1.87 µM.

What about the TGI (HL-60(TB) leukemia) of the same compound?
The TGI was 4.55 µM.

And the GI50 (HOP-62 NSCLC)?
The GI50 was 1.73 µM.

What about the TGI (HOP-62 NSCLC) of the same compound?
Its TGI is 6 µM.

And the GI50 (HOP-92 NSCLC)?
Its GI50 is 1.56 µM.

What about the TGI (HOP-92 NSCLC) of the same compound?
The TGI was 7.77 µM.

What about the GI50 (HS 578T breast) of the same compound?
Its GI50 is 4.03 µM.

What about the TGI (HS 578T breast) of the same compound?
Its TGI is 25.7 µM.

And the GI50 (HT29 colon)?
The GI50 was 1.83 µM.

And the TGI (HT29 colon)?
The TGI was 8.57 µM.

And the GI50 (IGROV1 ovarian)?
Its GI50 is 2.18 µM.

And the TGI (IGROV1 ovarian)?
Its TGI is 11.3 µM.

And the GI50 (K-562 leukemia)?
The GI50 was 1.33 µM.

What about the TGI (K-562 leukemia) of the same compound?
The TGI was 11.7 µM.

And the GI50 (KM12 colon)?
Its GI50 is 2.7 µM.

What about the TGI (KM12 colon) of the same compound?
The TGI was 12.8 µM.

What about the GI50 (LOX IMVI melanoma) of the same compound?
The GI50 was 1.58 µM.

What about the TGI (LOX IMVI melanoma) of the same compound?
Its TGI is 3.81 µM.

And the GI50 (M14 melanoma)?
Its GI50 is 1.86 µM.

What about the TGI (M14 melanoma) of the same compound?
The TGI was 4.22 µM.

And the GI50 (MALME-3M melanoma)?
Its GI50 is 2.47 µM.

And the TGI (MALME-3M melanoma)?
Its TGI is 5.69 µM.

What about the GI50 (MCF7 breast) of the same compound?
Its GI50 is 2.42 µM.

And the TGI (MCF7 breast)?
Its TGI is 12.9 µM.

What about the GI50 (MDA-MB-231 breast) of the same compound?
The GI50 was 3.2 µM.

What about the TGI (MDA-MB-231 breast) of the same compound?
The TGI was 13.4 µM.

What about the GI50 (MDA-MB-435) of the same compound?
Its GI50 is 0.858 µM.

What about the TGI (MDA-MB-435) of the same compound?
The TGI was 6.41 µM.

What about the GI50 (MOLT-4 leukemia) of the same compound?
The GI50 was 3.02 µM.

What about the TGI (MOLT-4 leukemia) of the same compound?
Its TGI is 13.1 µM.

And the GI50 (NCI-H226 lung)?
The GI50 was 12 µM.

What about the TGI (NCI-H226 lung) of the same compound?
The TGI was 33.9 µM.

What about the GI50 (NCI-H23 lung) of the same compound?
The GI50 was 2.76 µM.

What about the TGI (NCI-H23 lung) of the same compound?
The TGI was 12.7 µM.

What about the GI50 (NCI-H460 lung) of the same compound?
The GI50 was 3.28 µM.

What about the TGI (NCI-H460 lung) of the same compound?
Its TGI is 13.7 µM.

What about the GI50 (NCI-H522 lung) of the same compound?
Its GI50 is 2.69 µM.

And the TGI (NCI-H522 lung)?
The TGI was 10.9 µM.

And the GI50 (NCI/ADR-RES ovarian)?
Its GI50 is 1.95 µM.

And the TGI (NCI/ADR-RES ovarian)?
The TGI was 6.66 µM.

And the GI50 (OVCAR-3 ovarian)?
The GI50 was 1.81 µM.

What about the TGI (OVCAR-3 ovarian) of the same compound?
Its TGI is 4.49 µM.

What about the GI50 (OVCAR-4 ovarian) of the same compound?
Its GI50 is 3.07 µM.

And the TGI (OVCAR-4 ovarian)?
Its TGI is 15.2 µM.

What about the GI50 (OVCAR-5 ovarian) of the same compound?
Its GI50 is 4.23 µM.

And the TGI (OVCAR-5 ovarian)?
Its TGI is 19.3 µM.

And the GI50 (OVCAR-8 ovarian)?
Its GI50 is 3.15 µM.

And the TGI (OVCAR-8 ovarian)?
The TGI was 12.1 µM.

What about the GI50 (PC-3 prostate) of the same compound?
Its GI50 is 3.03 µM.

What about the TGI (PC-3 prostate) of the same compound?
Its TGI is 12.9 µM.

And the GI50 (RPMI-8226 leukemia)?
Its GI50 is 2.13 µM.

What about the TGI (RPMI-8226 leukemia) of the same compound?
The TGI was 6.33 µM.

And the GI50 (RXF 393 renal)?
The GI50 was 1.69 µM.

What about the TGI (RXF 393 renal) of the same compound?
Its TGI is 4.43 µM.

And the GI50 (SF-268 CNS)?
Its GI50 is 3.43 µM.

And the TGI (SF-268 CNS)?
The TGI was 16.1 µM.

And the GI50 (SF-295 CNS)?
Its GI50 is 1.67 µM.

What about the TGI (SF-295 CNS) of the same compound?
The TGI was 6.23 µM.

And the GI50 (SF-539 CNS)?
Its GI50 is 1.95 µM.

What about the TGI (SF-539 CNS) of the same compound?
Its TGI is 4.02 µM.

What about the GI50 (SK-MEL-2 melanoma) of the same compound?
The GI50 was 2.52 µM.

And the TGI (SK-MEL-2 melanoma)?
Its TGI is 6.79 µM.

And the GI50 (SK-MEL-28 melanoma)?
Its GI50 is 2.29 µM.

And the TGI (SK-MEL-28 melanoma)?
The TGI was 6.66 µM.

And the GI50 (SK-MEL-5 melanoma)?
The GI50 was 1.82 µM.

And the TGI (SK-MEL-5 melanoma)?
Its TGI is 3.65 µM.

And the GI50 (SK-OV-3 ovarian)?
Its GI50 is 2.84 µM.

What about the TGI (SK-OV-3 ovarian) of the same compound?
The TGI was 10.7 µM.

And the GI50 (SN12C renal)?
Its GI50 is 3.35 µM.

What about the TGI (SN12C renal) of the same compound?
Its TGI is 14.6 µM.

What about the GI50 (SNB-19 CNS) of the same compound?
Its GI50 is 3.81 µM.

What about the TGI (SNB-19 CNS) of the same compound?
The TGI was 15.4 µM.

And the GI50 (SNB-75 CNS)?
Its GI50 is 2.29 µM.

What about the TGI (SNB-75 CNS) of the same compound?
Its TGI is 9.78 µM.

What about the GI50 (SR leukemia) of the same compound?
The GI50 was 1.42 µM.

And the TGI (SR leukemia)?
Its TGI is 5.28 µM.

And the GI50 (SW-620 colon)?
The GI50 was 2.73 µM.

And the TGI (SW-620 colon)?
The TGI was 11.5 µM.

What about the GI50 (T-47D breast) of the same compound?
The GI50 was 2.06 µM.

And the TGI (T-47D breast)?
The TGI was 7.26 µM.

What about the GI50 (TK-10 renal) of the same compound?
The GI50 was 3.3 µM.

And the TGI (TK-10 renal)?
The TGI was 12.3 µM.

And the GI50 (U251 CNS)?
The GI50 was 3.15 µM.

What about the TGI (U251 CNS) of the same compound?
The TGI was 10.6 µM.

And the GI50 (UACC-257 melanoma)?
Its GI50 is 2.73 µM.

What about the TGI (UACC-257 melanoma) of the same compound?
The TGI was 7.33 µM.

And the GI50 (UACC-62 melanoma)?
Its GI50 is 3.49 µM.

What about the TGI (UACC-62 melanoma) of the same compound?
The TGI was 12.5 µM.

And the GI50 (UO-31 renal)?
The GI50 was 1.61 µM.

What about the TGI (UO-31 renal) of the same compound?
The TGI was 6.77 µM.
